The text below walks through data of patent US6716582B2 (priority 2000, dated 2004).

Each structure is given as a SMILES string.

Assay [1] concerns Luxarray 0.5 luxCDABE reporter clones. The assay can be described thus: Luxarray 0.5 solid phase perturbation with nalidixic acid. In kind it is cell-based, E. coli. The following applies: for bioluminescence response: solid phase, 1 or 5 μg/ml, 2 hrs. The method, then:
A solid phase assay system consisting of reporter clones growing in the presence or absence of a perturbation, biological, environmental or chemical was developed. This was accomplished by growing the reporters on a porous membrane (Biodyne B, Nunc) seated on top of solid growth media in a culture dish (OmniTray, Nunc). Luminescence was measured either by a luminometer or by creating an image of the entire culture and quantitating the pixel density. Effects of perturbants can be determined by comparison of luminescence generated by treated and control cultures. Growth on the surface of the membrane allows the reporter assay to be moved between conditions as required. Experimental protocols often involve perturbations that prohibit long term exposure due to cell death or other irreversible effects. The ability to move the entire array to new growth conditions allows one a great variety of experimental schemes such as pulsed or pulse/chase exposures, reversibility, and short term kinetic studies.
Membranes were sterilized with UV illumination for 10 min then placed in contact with prewarmed media in a culture dish. The clones and controls were printed onto an approximately 8×12 cm membrane mimicking the pattern of a 96-well plate (FIG. 3A). Strains were printed to generate 8 repeating sections of the 10 strains and two controls and placed in a Dynex ML3000 luminometer prewarmed to 37° C. Luminescence data was collected for each spot for 40 cycles of 20 min duration (overnight). […] Without exception, the signal strength measured corroborated the data obtained in liquid culture. Additionally, replicates varied minimally, again similar to liquid culture measurements.
Next the system was evaluated for its ability to determine responses to perturbation, in this case, DNA damage caused by nalidixic acid. Parental clone and two nonresponding reporters, osmY, and lacZYA, and three DNA damage responsive reporters, uvrA, recA, dinG, were chosen. […] The membranes were moved to new, pre-warmed plates containing varying amounts of nalidixic acid and light readings collected with an ML3000 luminometer. […] Luminescence was measured with a Dynex ML3000 luminometer every 30 min for 2 hrs. […] The strain containing the parental plasmid, pDEW201, without a promoter driving luxCDABE expression produces very low levels of bioluminescence that are very close to the background measured on a ML3000 luminometer for strains grown in 96-well microplates. […]
The clones of Luxarray 0.5 were used to print arrays as described above at a 4×4 density. […] Spot intensity was determined using ArrayVision™ (Imaging Research, Toronto, Canada).

Assay [2] concerns luxCDABE gene fusions. As to the kind of experiment: retest of nalidixic acid upregulated fusions in liquid medium. The following applies: of 7 conc tested. In kind it is cell-based, E. coli. The method, then:
Several concentrations of nalidixic acid were used because the differences in responses between liquid and solid growth were not known. Light production of 100 μl duplicate cultures at 37° C. was quantitated using a 96 well plate luminometer (Luminoskan Ascent, Labsystems). […] It should be noted that the liquid medium tests were not corrected for growth inhibition by nalidixic acid.

As for `CCn1cc(C(=O)O)c(=O)c2ccc(C)nc21` [Nalidixic acid, nalidixic acid], the bioluminescence response entry in assay [1] (SOS regulon reporters uvrA, recA, dinG) is recorded as “increased bioluminescence”; in assay [1] (osmY and lacZYA fusions), “unaffected”. Moreover, the reporter expression entry in assay [1] (five DNA damage-responsive reporters, high density array, 5 μg/ml, 0-8 hr) is listed as “upregulation of expression”. For the same compound, the light production result in assay [1] (lac promoter fusion and several other promoter fusions, high density array, 5 μg/ml) was “decreased”. In addition, the “# of conc with > 1.5 fold up” value in assay [2] (dinG ybiB lux-a.pk0024.f5) worked out at 6; in assay [2] (dinP lux-a.pk055.a3) it was 7; in assay [2] (frvR frvX frvB frvA lux-a.pk046.e6), 0; in assay [2] (lpxA lpxB rnhB dnaE lux-a.pk061.c3), 3; in assay [2] (lux-a.pk0015.d6), 6; in assay [2] (lux-a.pk0019.g1) it was 6. Further, the “# of conc with > 1.5 fold up” value in assay [2] (lux-a.pk033.c5) is on record as 7; in assay [2] (oraA lux-a.pk058.f5), 7; in assay [2] (yaaF lux-a.pk031.e7), 3; in assay [2] (yfhJ fdx hscA yfhE lux-a.pk0019.g2) it was 0; in assay [2] (yigN lux-a.pk046.f11), 5.
